Laboratory results from patent publication EP0097070A2, “Process for preparing ellipticine derivatives, compounds so obtained and medicaments containing them” (ELF SANOFI, priority 1982, dated 1983).
Read-outs that look alike come from different tables or passages of the source.

Experiments:
[1] = test system: cellules tumorales L 1210; assay: Antitumour effect: increase in life span of mice inoculated with L 1210 cells; format: in vivo, souris; details: 10^5 L 1210 cells i.p.; compound i.p. at dose DL0/2 (half the LD0 dose), 20 hours after inoculation; versus control animals; significant if above 25 p. 100
Source text: Les cellules tumorales L 1210 sont inoculées par la voie intrapéritonéale à ces souris femelles OBA/2 d'un poids corporel moyen de 20g en une injection unique de 10^5 cellules; chez les animaux traités, le composé étudié est injecté à la dose de OL0/2 également par la voie intrapéritonéale 20 heures après la première injection des cellules L 1210.
L'effet antitumoral est apprécié par la détermination de l'augmentation de la durée de survie (ILS : increase in life Span) des animaux traités par rapport aux animaux témoins qui n'ont reçu que les cellules tumorales.
L'augmentation de la durée de survie est considérée comme significative lorsqu'elle est supérieure à 25 p. 100.
Les résultats obtenus sont consignés dans le tableau suivant qui indique pour les dérivés testés, le pourcentage d'augmentation de la durée de survie par rapport au témoin.

[2] = test system: souris femelles de type DSA/2; details: mouse, in vivo, ip, 43200 min
Source text: Cette étude, effectuée sur des souris femelles de type DSA/2 d'un poids corporel moyen de 20 g a permis de déterminer la DL0, qui représente la dose unique maximum administrable par une injection intrapéritonéale sans qu'aucune mort intervienne dans les 30 jours qui suivent l'administration du produit.

[3] = test system: cellules leucémiques L 1210; assay: Cytotoxicity: growth inhibition of L 1210 cells in culture; format: cell-based; details: concentration giving 50 p. 100 inhibition of cell multiplication, 48 hours of culture, DMSO 1 p. 100 final, read-out: ID50 (the source's name)
Source text: Les substances à étudier sont dissoutes dans du DMSO (1 p. 100 final) dont on a préalablement vérifié l'innocuité. Des quantités croissantes du produit à tester sont ajoutées au temps ? des numérations sont faites après 24 heures et 48 heures de contact. Des sérias témoins sont constituées avec ces quantités de DMSO équivalentes à celles des séries traitées. […] 5 Le pourcentage d'inhibition de la croissance cellulaire est déterminé par le rapport […] de croissance du témoin sur […] de croissance des essais pour différentes concentrations de produit à tester après 24 heures et 48 heures de culture Une relation dose effet est déterminée selon […] et WILCOXON (C. DUPONT, […].

Compound | POURCENTAGE D'AUGMENTATION DE LA DUREE DE SURVIE (ILS) [1] | DL0 [2] [mg/kg] | IC50 ([3]; Mus musculus, L1210) [nM] | IC50 [3] [nM]
Cc1c2cc[n+](C)cc2c(C)c2c1[nH]c1ccc(O)c(N=C(CC(C)C)C(=O)O)c12 [dérivé n° 1, acétate es méthyl-2 hydroxy-9 leucine-10, elliopticinium] | 35 p. 100 | 10 | 280 | 
Cc1c2cc[n+](C)cc2c(C)c2c1[nH]c1ccc(O)c(N=C(C(=O)O)C(C)C)c12 [dérivé n° 2, acétate de méthyl-2 hydroxy-9 valine 10 ellipticinium] | 31,3 p. 100 | 15 | 310 | 
Cc1c2cc[n+](C)cc2c(C)c2c1[nH]c1ccc(O)c(N=CC(=O)O)c12 [dérivé n° 3] |  | 20 | 540 | 
Cc1c2cc[n+](C)cc2c(C)c2c1[nH]c1ccc(O)c(N=C(Cc3c[nH]cn3)C(=O)O)c12 [dérivé n° 4] |  |  | 2460 | 
CC(=Nc1c(O)ccc2[nH]c3c(C)c4cc[n+](C)cc4c(C)c3c12)C(=O)O [dérivé n° 5, scétate ce méthyl-2 hydroxy-9 elanine-10 ellipricinium] |  | 20 | 200 | 
Cc1c2cc[n+](C)cc2c(C)c2c1[nH]c1ccc(O)c(N=C(CCC(=O)O)C(=O)O)c12 [dérivé n° 6, acétate de méthyl-2 hydroxy-9 glutamyle-10 ellipticinium] |  |  | 23500 | 
CC(=O)NC(CSc1c(O)ccc2[nH]c3c(C)c4cc[n+](C)cc4c(C)c3c12)C(=O)O (stereo not shown) [dérivé n° 8, Hexafluorophosphate de méthyl-2 hydroxy-9 N-acétyl cystéin-10 ellipticinium] |  |  | 1120 | 
Cc1c2cc[n+](C)cc2c(C)c2c1[nH]c1ccc(O)c(SCC(NC(=O)CCC(N)C(=O)O)C(=O)NCC(=O)O)c12 (stereo not shown) [dérivé n° 9, hexafluorophosphata de méthyl-2 hydroxy-9 glutathion-10 ellipticinium] |  |  | 1610 | 
Hexafluorophosphate de méthyl-2 hydroxy-8 méthylcystéine-10 ellipticinium [dérivé n° 7] |  |  |  | 790
acétate de méthyl -2 oxo -9 (guanylyl -5' -P)-10 ellipticinium [dérivé n° 13] |  |  |  | > 1000
acétate de méthyl-2 oxo -9 (adényl -5'-P)-10 ellioticinium [dérivé n° 12] |  |  |  | > 800
acétate de méthyl-2 oxo-9 adényl-10 ellipticinium [dérivé n° 10] |  |  |  | 500
acétate de méthyl-2 oxo-9 guanosyl-10 ellipticinium [dérivé n° 11] |  |  |  | 760
